Results from patent publication US20260224708A1, “CONJUGATE COMPOUNDS AND COMPOSITIONS” (REZUBIO PHARMACEUTICALS CO., LTD, priority 2023, published 2026).
Where a name gives a salt, the structure may show the parent alone.

What was measured:
[1] = Pharmacokinetics in mice, IV and PO; format: in vivo; details: mouse, plasma, male ICR (CD-1) mice
Experimental: Male ICR (CD-1) mice at around 4-6 weeks with body weight of around 25 grams (n=3) were purchased from VT-River (Zhejiang, China). After 1-week acclimation, animals were dosed with exemplary compounds intravenously at 1 mpk or orally at 10 mpk (0.5% methylcellulose in PBS as vehicle for both routes of administration). Blood samples (30 μL) were collected via saphenous vein puncture at 5 (IV only), 15, 30, 60, 120, 240, 480, and 1440 min post dose. The blood samples were saved in 0.5 M K2EDTA coated tubes and centrifuged at 4,600 rpm at 4° C. for 5 min. Plasma samples were collected and stored in −80° C. till PK analysis.
Take 10 μL of K2EDTA-treated plasma samples of CD-1 mice, add 200 μL of precipitation solution with internal standard (5 ng/mL Terfenadine in MeOH/ACN), mix well by vortexing for 1 min at room temperature followed by centrifuge at 4° C. and 4000 rpm for 15 min. Save the supernatant as injection for LC-MS/MS quantification of exemplary compounds in plasma samples of mice.
Establish a standard curve before and after each analytical batch, accompanied by quality controls of low, medium, and high concentrations. The number of quality control samples is not less than 6 and should be equal to or more than the number of samples of each batch, and interspersed in sample measurement. Standard curve and quality control samples of each batch must meet the acceptance criteria.

GPR40 = molecular target: T1, GPR40 (Homo sapiens, UniProt O14842); experiment: IP1 accumulation assay in HEK293 cells stably expressing GPR40; format: cell-based
T1 construct: expressed in transfected cells
T1 sequence (O14842 whole entry): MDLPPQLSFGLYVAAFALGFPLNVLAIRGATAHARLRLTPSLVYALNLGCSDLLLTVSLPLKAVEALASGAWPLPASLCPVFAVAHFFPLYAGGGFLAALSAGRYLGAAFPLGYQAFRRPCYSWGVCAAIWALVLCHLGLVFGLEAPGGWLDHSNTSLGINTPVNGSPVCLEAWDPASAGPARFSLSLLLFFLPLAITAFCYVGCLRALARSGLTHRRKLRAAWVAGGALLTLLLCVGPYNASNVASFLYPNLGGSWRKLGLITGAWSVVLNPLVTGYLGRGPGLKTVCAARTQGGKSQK
Experimental: IP1 accumulation assay was used to evaluate the potency of compounds. HEK293 cells stably expressing GPR40 were cultured in 5% CO2 incubator (ThermoFisher) in maintenance media (Dulbecco's modified Eagle's medium with 4.5 g/L of glucose, 10% fetal bovine serum, 100 μg/mL Hygromycin, and Penicillin (100 U/mL)/Streptomycin (100 μg/mL)) till 100% confluency. Cells were harvested freshly, spun down at 300×g for 5 min, and resuspended in pre-warmed 1×stimulant buffer from Cisbio IP-One HTRF Detection kit (Cisbio). Cell density was adjusted to 2.0×10^6 cells/mL. DMSO was used as blank control and AMG-1638 (CAS #: 1142214-62-7) as positive control. Compounds were prepared at 10 mM in DMSO and 5 nL of 3×serially diluted compounds (10 concentrations) were added to each well of the 384-LDV assay plate (Corning) by using ECHO 550 (Labcyte). Five μL of cells in suspension were transferred into each well by using Multidrop Combi Reagent Dispenser (ThermoFisher). Assay plate was then sealed and incubated at 37° C. for 2 hours. IP-d2 reagent and anti-IP1 reagent were prepared following the manual (Cisbio). Five μL of IP1-d2 and then 5 μL of anti-IP1 antibody was added to each well sequentially. Assay plate was incubated at room temperature for 60 min and then read at 665 nm/615 nm on an Envision plate reader (PerkinElmer). […] Dose curve was fitted and EC50 of each compound was calculated by using XLFit.

Row | SMILES | clearance ([1]; 1 mg/kg, IV 1 mpk) | also measured
1 | COc1ccc(C(=O)N(CC(C)(C)CCCCCCCCCCCCCCCCCC(=O)NCC[N+](C)(CCCC(=O)NCCN)CCCC(=O)NCCN)c2cccc(C)n2)c(N2CCC(COc3cc([C@@H](CC(=O)O)C4CC4)ccn3)CC2)c1 [Example 17] | 0.1 mL/min/kg | EC50 (GPR40): 0.11 nM; AUC ([1]; 1 mg/kg, IV 1 mpk): 104 µM·h; half-life ([1]; 1 mg/kg, IV 1 mpk): 10.5 h; Cmax ([1]; 10 mg/kg, PO 10 mpk): 238 nM; Tmax ([1]; 10 mg/kg, PO 10 mpk): 6.7 h; bioavailability ([1]; 10 mg/kg, PO 10 mpk, oral bioavailability): 0.41%
2 | COc1ccc(C(=O)N(CC(C)(C)CCCCCCCCCCCCCCCCCCCCCC[N+]23CCN(CC2)CC3)c2cccc(C)n2)c(N2CCC(COc3cc([C@@H](CC(=O)O)C4CC4)ccn3)CC2)c1 [Example 21, (S)-1-(24-(2-(4-(((4-(2-carboxy-1-cyclopropylethyl)pyridin-2-yl)oxy)methyl)piperidin-1-yl)-4-methoxy-N-(6-methylpyridin-2-yl)benzamido)-23,23-dimethyltetracosyl)-1,4-diazabicyclo[2.2.2]octan-1-ium] | 0.67 mL/min/kg | 
3 | COc1ccc(C(=O)N(CC(C)(C)CCn2cc(CCCCCCCCCCCCCCCCCC(=O)NCCC[N+]34CCN(CC3)CC4)nn2)c2cccc(C)n2)c(N2CCC(COc3cc([C@@H](CC(=O)O)C4CC4)ccn3)CC2)c1 [Example 34] |  | EC50 (GPR40): 0.32 nM
4 | COc1ccc(C(=O)N(CC(C)(C)CCCCCCCCCCCCCCCCCC(=O)NCCC[N+]23CC[N+](C)(CC2)CC3)c2cccc(C)n2)c(N2CCC(COc3cc([C@@H](CC(=O)O)C4CC4)ccn3)CC2)c1 [Example 19] | 0.43 mL/min/kg | 

Now from value to compound, other results behind:

Row | clearance ([1]; 1 mg/kg, IV 1 mpk) | SMILES | also measured
5 | 0.14 mL/min/kg | COc1ccc(C(=O)N(CC(C)(C)CCCCCCCCCCCCCCCCCCCC(=O)NCCCN(CC(=O)O)CC(=O)O)c2cccc(C)n2)c(N2CCC(COc3cc([C@@H](CC(=O)O)C4CC4)ccn3)CC2)c1 [Example 13] | 
6 | 0.22 mL/min/kg | COc1ccc(C(=O)N(CC(C)(C)CCCCCCCCCCCCCCCCCCCC(=O)NCC[N+](C)(CC(=O)NCCN)CC(=O)NCCN)c2cccc(C)n2)c(N2CCC(COc3cc([C@@H](CC(=O)O)C4CC4)ccn3)CC2)c1 [Example 4] | 
7 | 0.32 mL/min/kg | COc1ccc(C(=O)N(CC(C)(C)CCCCCCCCCCCCCCCCCC(=O)NCCC[N+]23CCN(CC2)CC3)c2cccc(C)n2)c(N2CCC(COc3cc([C@@H](CC(=O)O)C4CC4)ccn3)CC2)c1 [Example 18, (S)-1-(3-(20-(2-(4-(((4-(2-carboxy-1-cyclopropylethyl)pyridin-2-yl)oxy)methyl)piperidin-1-yl)-4-methoxy-N-(6-methylpyridin-2-yl)benzamido)-19,19-dimethylicosanamido)propyl)-1,4-diazabicyclo[2.2.2]octan-1-ium TFA salt] | 
8 | 0.15 mL/min/kg | COc1ccc(C(=O)N(CC(C)(C)CCCCCCCCCCCCCCCCCC(=O)NCCC[N+](C)(CC(=O)NCCN)CC(=O)NCCN)c2cccc(C)n2)c(N2CCC(COc3cc([C@@H](CC(=O)O)C4CC4)ccn3)CC2)c1 [Example 12] | 
9 | 0.2 mL/min/kg | COc1ccc(C(=O)N(CC(C)(C)CCCCCCCCCCCCCCCCCCCC(=O)NCCC[N+](C)(CC(=O)[O-])CC(=O)O)c2cccc(C)n2)c(N2CCC(COc3cc([C@@H](CC(=O)O)C4CC4)ccn3)CC2)c1 (stereo partly drawn) [Example 14] | 
